Assay results published in patent US9149038B2, “4-amino-6-(heterocyclic)picolinates and 6-amino-2-(heterocyclic)pyrimidine-4-carboxylates and their use as herbicides” (Dow AgroSciences LLC, priority 2013, dated 2015).
Read-outs that look alike come from different tables or passages of the source.

What was measured:
[1] = test system: Key Broadleaf Weed and Crop Species; experiment: Post-Emergent Test II: postemergent herbicidal activity, visual rating after 14 d (Table 7); assay type: in vivo; details: post-emergence, 336 h; for pest or weed control at 35 g/ha: 35 g ai/ha; for pest or weed control at 70 g/ha: 70 g ai/ha; for pest or weed control at 140 g/ha: 140 g ai/ha
Procedure, shortened: (§1)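 Plants were raised in a greenhouse for 7-21 d and treated once at the first or second true leaf stage. Compounds, dissolved in 97:3 acetone:DMSO then diluted into an aqueous acetone/isopropanol/crop oil/Triton X-155 carrier, were applied by overhead track sprayer at 187 L/ha. After 14 d with subirrigation, injury was scored visually from 0 (none) to 100 (complete kill).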

[2] = test system: Key Grass and Sedge Weeds as well as Grass Crops; experiment: Post-Emergent Test II: postemergent herbicidal activity, visual rating after 14 d (Table 8); assay type: in vivo; details: post-emergence, 336 h; for pest or weed control at 35 g/ha: 35 g ai/ha; for pest or weed control at 70 g/ha: 70 g ai/ha; for pest or weed control at 140 g/ha: 140 g ai/ha
Procedure, shortened: as §1

[3] = lambsquarters (Chenopodium album), read-out: Visual Growth Reduction (%) 14 Days After Application CHEAL
[4] = oilseed rape, canola (Brassica napus), read-out: Visual Growth Reduction (%) 14 Days After Application BRSNN
[5] = redroot pigweed (Amaranthus retroflexus), read-out: Visual Growth Reduction (%) 14 Days After Application AMARE
[6] = sunflower (Helianthus annuus), read-out: Visual Growth Reduction (%) 14 Days After Application HELAN
[7] = velvetleaf (Abutilon theophrasti), read-out: Visual Growth Reduction (%) 14 Days After Application ABUTH
[8] = wild poinsettia (Euphorbia heterophylla), read-out: Visual Growth Reduction (%) 14 Days After Application EPHHL
[9] = barnyardgrass (Echinochloa crus-galli), read-out: Visual Growth Reduction (%) 14 Days After Application ECHCG
[10] = giant foxtail (Setaria faberi), read-out: Visual Growth Reduction (%) 14 Days After Application SETFA
[11] = maize, corn (Zea mays), read-out: Visual Growth Reduction (%) 14 Days After Application ZEAMX
[12] = rice (Oryza sativa), read-out: Visual Growth Reduction (%) 14 Days After Application ORYSA
[13] = wheat, spring (Triticum aestivum), read-out: Visual Growth Reduction (%) 14 Days After Application TRZAS
[14] = yellow nutsedge (Cyperus esculentus), read-out: Visual Growth Reduction (%) 14 Days After Application CYPES

## COC(=O)c1nc(-c2ccc3c(c2)OC(C)(C)O3)nc(N)c1OC [Compound 67]
[1]; [3]
  pest or weed control at 35 g/ha: 0 to 29%
  pest or weed control at 70 g/ha: 0 to 29%
  pest or weed control at 140 g/ha: 0 to 29%
[1]; [4]
  pest or weed control at 35 g/ha: 0 to 29%
  pest or weed control at 70 g/ha: 0 to 29%
  pest or weed control at 140 g/ha: 0 to 29%
[1]; [5]
  pest or weed control at 35 g/ha: 0 to 29%
  pest or weed control at 70 g/ha: 0 to 29%
  pest or weed control at 140 g/ha: 0 to 29%
[1]; [6]
  pest or weed control at 35 g/ha: 0 to 29%
  pest or weed control at 70 g/ha: 0 to 29%
  pest or weed control at 140 g/ha: 0 to 29%
[1]; [7]
  pest or weed control at 35 g/ha: 0 to 29%
  pest or weed control at 70 g/ha: 0 to 29%
  pest or weed control at 140 g/ha: 0 to 29%
[1]; [8]
  pest or weed control at 35 g/ha: 60 to 74%
  pest or weed control at 70 g/ha: 95 to 100%
  pest or weed control at 140 g/ha: 95 to 100%
[2]; [9]
  pest or weed control at 35 g/ha: 0 to 29%
  pest or weed control at 70 g/ha: 45 to 59%
  pest or weed control at 140 g/ha: 75 to 84%
[2]; [10]
  pest or weed control at 35 g/ha: 0 to 29%
  pest or weed control at 70 g/ha: 45 to 59%
  pest or weed control at 140 g/ha: 60 to 74%
[2]; [11]
  pest or weed control at 35 g/ha: 0 to 29%
  pest or weed control at 70 g/ha: 60 to 74%
  pest or weed control at 140 g/ha: 60 to 74%
[2]; [12]
  pest or weed control at 35 g/ha: 0 to 29%
  pest or weed control at 70 g/ha: 0 to 29%
  pest or weed control at 140 g/ha: 0 to 29%
[2]; [13]
  pest or weed control at 35 g/ha: 0 to 29%
  pest or weed control at 70 g/ha: 0 to 29%
  pest or weed control at 140 g/ha: 0 to 29%
[2]; [14]
  pest or weed control at 35 g/ha: 0 to 29%
  pest or weed control at 70 g/ha: 0 to 29%
  pest or weed control at 140 g/ha: 45 to 59%
